# Reference: patent US20250320205A1, “STAT6 DEGRADERS” (Gilead Sciences, Inc., priority 2024, published 2025)
# Biological target: T1, STAT6 (Homo sapiens, UniProt P42226)
# T1 construct: These cells express endogenous STAT6; host or cells: HeLa LgBiT clone 4.14 (CRISPR knock-in of HiBiT into the endogenous STAT6 gene)
# T1 sequence (P42226 1-847): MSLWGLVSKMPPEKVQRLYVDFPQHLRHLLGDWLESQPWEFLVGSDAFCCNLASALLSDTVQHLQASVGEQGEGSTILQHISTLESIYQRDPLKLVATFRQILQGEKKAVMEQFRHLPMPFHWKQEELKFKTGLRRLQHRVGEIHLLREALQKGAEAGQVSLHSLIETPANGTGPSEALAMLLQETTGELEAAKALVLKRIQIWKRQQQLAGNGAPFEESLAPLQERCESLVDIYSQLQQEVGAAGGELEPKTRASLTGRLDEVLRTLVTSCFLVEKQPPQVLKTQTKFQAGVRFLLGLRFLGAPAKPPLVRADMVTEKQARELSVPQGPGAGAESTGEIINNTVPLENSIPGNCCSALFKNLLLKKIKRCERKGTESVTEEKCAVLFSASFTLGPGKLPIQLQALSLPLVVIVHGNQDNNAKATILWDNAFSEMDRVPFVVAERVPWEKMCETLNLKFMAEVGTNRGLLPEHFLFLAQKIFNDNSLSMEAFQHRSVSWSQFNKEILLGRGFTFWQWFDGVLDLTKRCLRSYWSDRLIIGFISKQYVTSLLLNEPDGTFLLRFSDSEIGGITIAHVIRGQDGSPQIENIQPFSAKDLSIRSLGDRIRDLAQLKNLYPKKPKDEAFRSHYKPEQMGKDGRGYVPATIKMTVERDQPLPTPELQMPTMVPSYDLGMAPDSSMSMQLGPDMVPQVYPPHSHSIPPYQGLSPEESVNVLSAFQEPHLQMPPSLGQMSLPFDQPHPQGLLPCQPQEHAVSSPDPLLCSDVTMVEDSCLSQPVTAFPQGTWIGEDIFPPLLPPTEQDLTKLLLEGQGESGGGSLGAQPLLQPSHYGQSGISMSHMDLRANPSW
# Test: STAT6 Degrader Assay (HiBiT based, HeLa LgBiT clone 4.14 cells)
# Type: cell-based
# Settings: for DC50: geometric mean across assay runs and compound batches, DC50 provided for test compounds with >80% Emax, read-out: STAT6 degradation DC50; for Emax: HeLa, maximal STAT6 degradation
# Protocol: This was a HiBit based assay. A HeLa cell line stably transfected with a small protein, LgBit (Large Bit) was obtained from Promega. These cells express endogenous STAT6. A small 11 amino acid gene sequence (HiBiT) was inserted in the STAT6 gene using CRISPR technology. Once STAT6 protein is expressed in the cells, the HiBiT sequence will bind the LgBit in the cells resulting in a functional NanoBiT protein, giving a luminescent tag to STAT6. Single cell clones were prepared and the clone 4.14 was selected for the assay based on that clone showing high luminescence, high STAT6 phosphorylation upon stimulation with IL-4, and inhibition of luminescence when cells were treated with STAT6 siRNA. HeLa LgBiT clone 4.14 cells were suspended in DMEM with 10% FCS, 1% Pen/Strep, Na-pyrovate and Hygromycin B, at a concentration of 1.25*105 cells pr mL. 5000 cells were added pr well of a 384 well plate and 20 nL of compound was added by Echo® liquid handler. NN6394A (terfenadine, a toxic compound) was added to control wells at 50 μM concentration to establish the assay window. In these wells the cells are dead which equals 100% degradation of STAT6. After 4-24 h of incubation at 37° C. under 5% CO2/95% air, 5 μL substrate (Nano-GLO®) was added to the wells and the plates were centrifuged and incubated for 0.5 h. The luminescence in the wells as a measure of non-degraded STAT6 was measured in a plate reader (BMG Pherastar FSX). The measured DC50 (in nM) was determined.
SMILES,DC50,Emax
"CNc1cc(=O)n(-c2ccnc3c2cc([C@H](C)N2CC=C(c4c(C)cc(C(=O)N5CCC(CN6CCN(c7ccc(NC8CCC(=O)NC8=O)cc7F)C[C@H]6C)CC5)cc4F)CC2)n3C)cc1F (stereo partly drawn) [Example 2g27, 3-((3-fluoro-4-((R)-4-((1-(3-fluoro-4-(1-((S)-1-(4-(5-fluoro-4-(methylamino)-2-oxopyridin-1(2H)-yl)-1-meth-yl-1H-pyrrolo[2,3-b]pyridin-2-yl)ethyl)-1,2,3,6-tetrahydro-pyridin-4-yl)-5-methylbenz-oyl)piperidin-4-yl)methyl)-3-methylpiperazin-1-yl)phenyl)-amino)piperidine-2,6-dione]",4.2 nM,–
"CNc1ccn(-c2ccnc3c2cc([C@H](C)N2CC=C(c4c(C)cc(C(=O)N5CCC(CN6CCN(c7ccc(N[C@@H]8CCC(=O)NC8=O)cc7F)C[C@H]6C)CC5)cc4F)CC2)n3C)c(=O)c1 (single isomer, unassigned) [Example 2g47]",3.3 nM,–
"Cc1cc(C(=O)N2CCC(CN3CCN(c4ccc(N[C@@H]5CCC(=O)NC5=O)cc4F)CC3)CC2)cc(F)c1C1=CCN([C@@H](C)c2cc3c(-n4ccc5c(c4=O)CCN5)ccnc3n2C)CC1 (single isomer, unassigned) [Example 2g20]",6.9 nM,–
"CNc1ccn(-c2ccnc3c2cc([C@H](C)N2CC=C(c4c(C)cc(C(=O)N5CCn6nc(CN7CCC(c8ccc(N[C@H]9CCC(=O)NC9=O)cc8F)CC7)cc6C5)cc4F)CC2)n3C)c(=O)c1 (single isomer, unassigned) [Example 2g16]",0.2 nM,–
"CNc1ccn(-c2ccnc3c2cc([C@H](C)N2CC=C(c4c(C)cc(C(=O)N5CCC(CN6CCN(c7ccc(NC8CCC(=O)NC8=O)cc7F)C[C@H]6C)CC5)cc4F)CC2)n3C)c(=O)c1 (stereo partly drawn) [Example 2g46, 3-((3-fluoro-4-((R)-4-((1-(3-fluoro-5-methyl-4-(1-((S)-1-(1-methyl-4-(4-(methyl-amino)-2-oxopyridin-1(2H)-yl)-1H-pyrrolo[2,3-b]pyridin-2-yl)ethyl)-1,2,3,6-tetrahydro-pyridin-4-yl)benzoyl)piperi-din-4-yl)methyl)-3-methyl-piperazin-1-yl)phenyl)amino)-piperidine-2,6-dione]",3.1 nM,–
"CNc1ccn(-c2ccnc3c2cc([C@H](C)N2CCC(c4c(C)cc(C(=O)N5CCC(CN6CCN(c7ccc(N[C@H]8CCC(=O)NC8=O)cc7F)CC6)CC5)cc4F)CC2)n3C)c(=O)c1 (single isomer, unassigned) [Example 2g45]",10.7 nM,–
"CNc1ccn(-c2ccnc3c2cc([C@H](C)N2CC=C(c4c(C)cc(C(=O)N5CCC(CN6CCN(c7ccc(N[C@H]8CCC(=O)NC8=O)cc7F)CC6)CC5)cc4F)CC2)n3C)c(=O)c1 (single isomer, unassigned) [Example 2g39]",5 nM,–
"CNc1ccn(-c2ccnc3c2cc([C@H](C)N2CC=C(c4c(C)cc(C(=O)N5CCC(CN6CCN(c7ccc(NC8CCC(=O)NC8=O)cc7F)CC6)CC5)cc4F)CC2)n3C)c(=O)c1 (stereo partly drawn) [Example 2g37, 3-((3-fluoro-4-(4-((1-(3-fluoro-5-methyl-4-(1-((S)-1-(1-methyl-4-(4-(methyl-amino)-2-oxopyridin-1(2H)-yl)-1H-pyrrolo[2,3-b]pyridin-2-yl)ethyl)-1,2,3,6-tetrahydro-pyridin-4-yl)benzoyl)piperi-din-4-yl)methyl)piperazin-1-yl)phenyl)amino)piperidine-2,6-dione]",1.8 nM,–
"CNc1ccn(-c2ccnc3c2cc([C@H](C)N2CC=C(c4c(C)cc(C(=O)N5CCC(CN6CCN(c7ncc(NC8CCC(=O)NC8=O)cc7F)CC6)CC5)cc4F)CC2)n3C)c(=O)c1 (stereo partly drawn) [Example 2g13, 3-((5-fluoro-6-(4-((1-(3-fluoro-5-methyl-4-(1-((S)-1-(1-methyl-4-(4-(methyl-amino)-2-oxopyridin-1(2H)-yl)-1H-pyrrolo[2,3-b]pyridin-2-yl)ethyl)-1,2,3,6-tetrahydro-pyridin-4-yl)benzoyl)piperi-din-4-yl)methyl)piperazin-1-yl)pyridin-3-yl)amino)piperi-dine-2,6-dione]",–,20 to 30%
"CNc1cc(=O)n(-c2ccnc3c2cc([C@H](C)N2CC=C(c4c(C)cc(C(=O)N5CCC(CN6CCN(c7ccc(N[C@@H]8CCC(=O)NC8=O)cc7F)C[C@H]6C)CC5)cc4F)CC2)n3C)cc1F (single isomer, unassigned) [Example 2g28]",10.3 nM,–
"Cc1cc(C(=O)N2CCC(CN3CCN(c4ccc(NC5CCC(=O)NC5=O)cc4F)CC3)CC2)cc(F)c1C1CCN(Cc2cc3c(-n4ccc5c(c4=O)CCN5)ccnc3n2C)CC1 (stereo not drawn) [Example 2g36, 3-((3-fluoro-4-(4-((1-(3-fluoro-5-methyl-4-(1-((1-methyl-4-(4-oxo-1,2,3,4-tetrahydro-5H-pyrrolo[3,2-c]pyridin-5-yl)-1H-pyrrolo[2,3-b]pyridin-2-yl)methyl)piperi-din-4-yl)benzoyl)piperidin-4-yl)methyl)piperazin-1-yl)-phenyl)amino)piperidine-2,6-dione]",35.7 nM,–
"Cc1cc(C(=O)N2CCC(CN3CCN(c4ccc(N[C@@H]5CCC(=O)NC5=O)cc4F)C[C@H]3C)CC2)cc(F)c1C1=CCN([C@@H](C)c2cc3c(-n4ccc5c(c4=O)CCN5)ccnc3n2C)CC1 (single isomer, unassigned) [Example 2g24]",3 nM,–
"Cc1cc(C(=O)N2CCC(CN3CCN(c4ccc(N[C@H]5CCC(=O)NC5=O)cc4F)C[C@H]3C)CC2)cc(F)c1C1=CCN([C@@H](C)c2cc3c(-n4ccc5c(c4=O)CCN5)ccnc3n2C)CC1 (single isomer, unassigned) [Example 2g23]",3.3 nM,–

# The next lines start with the values.
DC50,Emax,SMILES
7.3 nM,–,"CNc1ccn(-c2ccnc3c2cc(CN2CC=C(c4c(C)cc(C(=O)N5CCC(CN6CCN(c7ccc(NC8CCC(=O)NC8=O)cc7F)CC6)CC5)cc4F)CC2)n3C)c(=O)c1 (stereo not drawn) [Example 2g54, 3-((3-fluoro-4-(4-((1-(3-fluoro-5-methyl-4-(1-((1-methyl-4-(4-(methylamino)-2-oxopyridin-1(2H)-yl)-1H-pyrrolo[2,3-b]pyridin-2-yl)-methyl)-1,2,3,6-tetrahydro-pyridin-4-yl)benzoyl)piperi-din-4-yl)methyl)piperazin-1-yl)phenyl)amino)piperidine-2,6-dione]"
–,70 to 80%,"CNc1ccn(-c2ccnc3c2cc(CN2CC=C(c4c(C)cc(C(=O)N5CCC(CN6CCN(c7ccc(N[C@@H]8CCC(=O)NC8=O)cc7F)CC6)CC5)cc4F)CC2)n3C)c(=O)c1 (single isomer, unassigned) [Example 2g56]"
7.2 nM,–,"CNc1cc(=O)n(-c2ccnc3c2cc([C@H](C)N2CC=C(c4c(C)cc(C(=O)N5CCC(CN6CCN(c7ccc(N[C@@H]8CCC(=O)NC8=O)cc7F)CC6)CC5)cc4F)CC2)n3C)cc1F (single isomer, unassigned) [Example 2g93]"
–,60 to 70%,"Cc1cc(C(=O)N(C)c2ccc(C3CCN(c4ccc(NC5CCC(=O)NC5=O)cc4F)CC3)cc2)cc(F)c1C1=CCN([C@H](C)c2cc3c(-n4ccc5[nH]ncc5c4=O)ccnc3n2C)CC1 (stereo partly drawn) [Example 2g133, N-(4-(1-(4-((2,6-dioxopiperi-din-3-yl)amino)-2-fluoro-phenyl)piperidin-4-yl)phen-yl)-3-fluoro-N,5-dimethyl-4-(1-((R)-1-(1-methyl-4-(4-oxo-1,4-dihydro-5H-pyrazolo[4,3-c]pyridin-5-yl)-1H-pyrrolo [2,3-b]pyridin-2-yl)ethyl)-1,2,3,6-tetrahydropyridin-4-yl)benzamide]"
–,40 to 50%,"CNc1ccn(-c2ccnc3c2cc(CN2CCC(c4c(C)cc(C(=O)N5CCN(C(=O)CN6CCN(c7ccc(NC8CCC(=O)NC8=O)cc7F)CC6)CC5)cc4F)CC2)n3C)c(=O)c1 (stereo not drawn) [Example 2g132, 3-((3-fluoro-4-(4-(2-(4-(3-fluoro-5-methyl-4-(1-((1-methyl-4-(4-(methylamino)-2-oxopyridin-1(2H)-yl)-1H-pyrrolo[2,3-b]pyridin-2-yl)-methyl)piperidin-4-yl)benzo-yl)piperazin-1-yl)-2-oxo-ethyl)piperazin-1-yl)phenyl)-amino)piperidine-2,6-dione]"
